From patent publication US11891644B2, “T cells with reduced surface fucosylation and methods of making and using the same” (Seagen Inc., priority 2017, dated 2024)

Assays:
primary human T cells = assay: Ex-vivo expansion of human peripheral T cells with 2FF, surface fucosylation by flow cytometry (LCA surface staining); assay type: cell-based; conditions: 100 μM 2FF, 10 days in culture, CD3/CD28 beads + IL2; LCA surface staining (FIG. 4)
Protocol: T cells were isolated from 10 mL of whole blood which was centrifuged first at 1200 rpm (300×g) for 10 min (without brakes). The top layer containing platelets was removed carefully without disrupting the white blood cell layer. Then RosetteSep™ Human T-Cell Enrichment Cocktail (Pan T Cells from StemCell technologies) was added to the remaining blood (500 μLAO mL blood). This was incubated for 20 min and then 1 mL FBS was added along with 10 mL PBS. Histopaque (20-25 mL) placed in a 50 mL Falcon the prepared blood/PBS solution was overlaid very slowly. This was centrifuged with no brake (25° C., 1500 rpm, 25 min). The top layer was removed and the T cells in the buffy coat layer were then removed to a new 50 mL tube. […]
For in vitro culturing of primary human T cell culture, isolated T cells were re-suspended in T cell media (RPMI media supplemented with 10% Fetal calf serum (FCS), 1% Penicillin and moved into two T25 flasks, one with or and one without 100 μM 2-deoxy-2-fluoro-L-fucose. CD3/CD28 antibody coated beads (20 μL/flask) were added to activate the T cells. After 24 hr interleukin 2 (IL2) was added (100 ng/μL). Each time the cells were passaged new IL2 and 2-deoxy-2-fluoro-L-fucose were added. After 10 days in culture, expanded T cells cultured in 2FF were assessed for changes in surface fucosylation by flow cytometry (FIG. 4).

CD3+ T cells = assay: Surface fucosylation of CD3+ T cells isolated from spleens of A20 tumor bearing mice, flow cytometry (surface LCA staining); assay type: in vivo, mouse (Balb/c); conditions: T cells from A20 tumor bearing mice treated with 20 mM 2FF in drinking water, LCA staining (FIG. 3)
Protocol: Mice from the untreated and 2FF treated group were sacrificed and spleens taken for CD3 T-cell enrichment. In brief spleens were collected in RPMI containing 2% FBS and cell suspensions passed through a 70 μm mesh nylon strainer washed with 2% RPMI. Cells were suspended in 10 mls of ACK lysis buffer and incubate for 5 min in this buffer to get rid of RBCs. Cells were centrifuged at 300×g for 5 minutes and re-suspended in PBS containing 2% FBS and 1 mM EDTA. T-cells were isolated using EasySep mouse T cell isolation kit as per the manufactures recommendation. Briefly, cells were re-suspended at 10^8 cells/mL to which 50 μL/mL of rat serum was added. Cells were then transferred into a 5 mL polystyrene tube and 50 μL of isolation cocktail added to the sample followed by room temperature incubation for 10 minutes. Rapid spheres were vortexed and 75 μL/mls added followed by room temperature incubation for 2.5 minutes. Sample volume was topped off to 2.5 mL and incubated with the cell isolation magnet for 2.5 minutes. The magnet was inverted and CD3^+ T cells collected and washed twice in RPMI and resuspended at 21.2×10^6 cells/ml.

A20 cells = assay: Anti-tumor activity of purified T cells or 2FF in s.c. A20 tumor bearing Balb/c mice; assay type: in vivo, mouse (Balb/c); conditions: treatment started at 100 mm^3 tumor; daily 20 mM 2FF in drinking water, or 2×10^6 T cells IP; versus untreated animals or T cells from untreated tumor bearing mice
Protocol: One group received no treatment, the other three group were treated when the A20 cells reached 100 mm^3 and were treated either with daily 20 mM 2FF in the drinking water, 2×10^6 T-cells isolated from control tumor bearing mice injected IP, or 2×10^6 T-cells isolated from 2FF tumor bearing mice injected IP. Animals were monitored for subsequent tumor progression.

A20 mouse lymphoma cells = assay: Growth of s.c. implanted A20 lymphoma in Balb/c mice receiving 2FF in drinking water; assay type: in vivo, mouse (Balb/c); conditions: 20 mM 2FF in drinking water from day 0; s.c. A20 tumors, 20 days; versus control group (FIG. 2)
Protocol: 20 Balb/c mice were implanted with A20 cells (0.2 mL of 5×10^6 cells s.c./mouse), one group of mice consisting of 10 animals received 2FF (20 mM in drinking water) from day 0 to termination of study. A20 lymphoma tumors were allowed to grow out and mice sacrificed after 20 days.

C[C@H](O)[C@@H](O)[C@@H](O)[C@H](F)C=O [2FF, 2-deoxy-2-fluoro-L-fucose]
decrease in surface fucosylation (primary human T cells): about 85% | surface fucosylation of isolated CD3+ T cells (CD3+ T cells): significant reduction in surface fucosylation | tumor growth (A20 cells): significantly delayed tumor growth and in some cases tumor regression | tumor progression (A20 mouse lymphoma cells): significant delay in tumor progression
